Reference: patent US20220047527A1, “FOOD-AND-DRINK COMPOSITION CONTAINING ASTAXANTHIN” (AstaReal Co., Ltd., priority 2016, published 2022)
Like-named read-outs stand apart in the source and are kept apart here.

Key:
[1] = tested on: human having a sense of fatigue; test: OSA sleep analysis (OSA sleep inventory MA version); assay type: in vivo
Protocol: (§1) A placebo-controlled, randomized, double-blind, parallel-group study was employed for ingestion of the test food, and two groups, namely, the control group (placebo group) with ingestion of a capsule not containing astaxanthin and the astaxanthin group with ingestion of a capsule containing 6 mg of astaxanthin (120 mg of Haematococcus algae extract and 10 mg of tocotrienol mixture derived from palm oil) were compared through a double-blind method. For ingestion of the test food, the subjects were instructed to ingest one capsule twice daily (total 12 mg of astaxanthin (240 mg of Haematococcus algae extract and 20 mg of tocotrienol mixture derived from palm oil) in two capsules per day), one after breakfast (or after the first meal of the day if no breakfast was taken) and the other after dinner, with water or lukewarm water within 30 min of eating. The overall duration for ingestion was 8 weeks (12 weeks only for the OSA sleep analysis). The subjects were also instructed to record their test food ingestion, drinking, and exercise in a diary every day, from the first day to the last day of ingestion.
In accordance with a method reported in Yukari Yamamoto, Hideki Tanaka, Miki Takase, Katuo Yamazaki, Kazuo Azumi, and Shuichiro Shirakawa: “Development and standardization of OSA sleep inventory (MA version) for middle-aged and elderly individuals”, Brain Science and Mental Disorders, vol. 10, p 401-409, 1999, the subjects were instructed to evaluate with respect to items listed in the OSA sleep inventory, and the results were analyzed. The assessment was performed once in the morning of the day of assessment (before load application). The OSA sleep inventory (MA version) consists of 16 items in terms of five factors, namely, First factor: sleepiness on rising, Second factor: initiation and maintenance of sleep, Third factor: frequent dreaming, Fourth factor: refreshing, and Fifth factor: sleep length, and the subjects were instructed to answer each question from four choices, and the results were converted to scores with a conversion table for analysis.

[2] = tested on: human having a sense of fatigue; test: VAS (Visual Analog Scale) analysis before/after mental and physical loads; assay type: in vivo; conditions: for VAS, Clear-headedness (FIG. 5) / VAS, Concentration (FIG. 5) / VAS, Feeling of body heaviness (FIG. 5) / VAS, Frustration (FIG. 5) / VAS, Mood (FIG. 5) / VAS, Motivation (FIG. 5): vs control group
Protocol: as §1
The assessment to the subjects consisted of seven questions: “Sense of Fatigue (“sense of fatigue caused by mental load” or “sense of fatigue caused by mental load and physical load”) (best sensation with no fatigue—worst sensation of being too tired to do anything)”, “Clear-headedness (very clear—very dull)”, “Concentration (able to concentrate very easily—unable to concentrate at all)”, “Motivation (highly motivated—totally unmotivated)”, “Mood (very happy—as depressed as I can be)”, “Frustration (not frustrated at all—very frustrated)”, and “Feeling of body heaviness (feeling my body is very light—feeling my body is very heavy)”. For each question, the subjects were instructed to draw a vertical line by intuition on a 100 mm horizontal line to indicate their condition at the time, with the far left end indicating the best condition and the far right end indicating the worst condition. A VAS score was derived by measuring with a ruler the distance from the far left end to the intersection with the vertical line. VAS analysis was performed five times in total in one day: in the morning of the day of assessment (before load application), after application of a physical load and a mental load, at the end of the assessment visit (after a rest period), after mental load application (calculation load; Uchida-Kraepelin test), and after a rest period after mental load application. To determine transient changes in fatigue, the load-induced change was calculated by subtracting the pre-load value from the values after mental load application, after a rest period after mental load application, after application of both loads, and after a rest period therefor. In addition, to determine the effect of test food ingestion alone, ingestion-induced change was calculated by subtracting the pre-load (pre-ingestion) value at week 0 from the pre-load value after 4-week ingestion and after 8-week ingestion.

[3] = tested on: human having a sense of fatigue; test: POMS (Profile of Mood States) analysis; assay type: in vivo
Protocol: as §1
Using the self-administered POMS 2 in Japanese, adult short version (Kanekoshobo, Tokyo, Japan), the subjects answered 35 questions by rating their “current mood” on a 5-point scale (0=not at all; 1=a little; 2=moderately; 3=quite a bit; 4=extremely). Responses to each question were scored according to the POMS scoring system for the seven scales: anger-hostility, confusion-bewilderment, depression-dejection, fatigue-inertia, tension-anxiety, vigor-activity, and friendliness, and the raw scores were converted into TMD scores with a conversion table. The POMS was administered 3 times in total in one day: in the morning of the day of assessment (before load application), after mental load application (calculation load; Uchida-Kraepelin test), and at the end of the day of assessment (after the rest period). To determine transient changes in fatigue, the load-induced change was calculated by subtracting the pre-load value from the values after mental load application and after a rest period therefor. In addition, to determine the effect of test food ingestion alone, ingestion-induced change was calculated by subtracting the pre-load (pre-ingestion) value at week 0 from the pre-load value after 8-week ingestion.

[4] = Adverse events in Study 1; assay type: in vivo, human
[5] = previously: 12 mg/day of astaxanthin and 40 mg/day of tocotrienol for eight weeks; cited from earlier work
[6] = astaxanthin group vs pre-ingestion, no significant difference (FIG. 2)
[7] = after application of both loads, after 4-week ingestion, vs control group (FIG. 4)
[8] = after application of both loads, after 8-week ingestion, vs control group (FIG. 4)
[9] = after application of both loads
[10] = after the rest period (after both loads), after 4-week ingestion, vs control group (FIG. 4)
[11] = after the rest period (after both loads), after 8-week ingestion, vs control group (FIG. 4)
[12] = after the rest period (after both loads)
[13] = throughout the study period, 12 mg/day

For `CC1=C(/C=C/C(C)=C/C=C/C(C)=C/C=C/C=C(C)/C=C/C=C(C)/C=C/C2=C(C)C(=O)C(O)CC2(C)C)C(C)(C)CC(O)C1=O` (stereo not drawn) [astaxanthin, 3,3′-dihydroxy-β,β-carotene-4,4′-dione], the “OSA First factor (sleepiness on rising)” value [1, 6] was “large increase”, the “OSA Fourth factor (refreshing)” value [1, 6] was “large increase” and the “OSA Second factor (initiation and maintenance of sleep)” value [1, 6] was “large increase”. The “OSA Fifth factor (sleep length)” value ([1]; astaxanthin group, 12 mg/day, vs pre-ingestion (FIG. 2)) was “marginally significant increase”, the “degree of improvement in Fifth factor (sleep length) compared with chamomile tea” value ([1]; vs literature: 200 mL chamomile tea 1 hour before bedtime over three days) was “larger” and the “VAS load-induced change, Clear-headedness” value [2, 7] was “marginally significant improvement and enhancement”. For the same molecule, the “VAS load-induced change, Mood” value [2, 7] was “significant improvement”, the “VAS load-induced change, Clear-headedness” value [2, 8] was “marginally significant improvement and enhancement” and the “VAS load-induced change, Concentration” value [2, 8] was “marginally significant improvement and enhancement”. The “VAS load-induced change, Feeling of body heaviness” value [2, 8] was “significant improvement”, the “VAS load-induced change, Mood” value [2, 8] was “marginally significant improvement” and the “VAS load-induced change, Motivation” value [2, 8] was “marginally significant enhancement”. The “VAS, Clear-headedness (FIG. 5)” value [2, 9] was “marginally significant improvement”, the “VAS, Concentration (FIG. 5)” value [2, 9] was “marginally significant improvement” and the “VAS, Feeling of body heaviness (FIG. 5)” value [2, 9] was “significant improvement”. The “VAS, Frustration (FIG. 5)” value [2, 9] was “resolution of frustration”, the “VAS, Mood (FIG. 5)” value [2, 9] was “marginally significant improvement” and the “VAS, Motivation (FIG. 5)” value [2, 9] was “marginally significant improvement”. The “VAS load-induced change, Frustration” value ([2]; after mental load application, after 8-week ingestion, vs control group (FIG. 4)) was “significant improvement”, the “VAS, Clear-headedness (FIG. 5)” value ([2]; after mental load application) was “improvement” and the “VAS, Concentration (FIG. 5)” value ([2]; after mental load application) was “improvement”. For the same molecule, the “VAS, Feeling of body heaviness (FIG. 5)” value ([2]; after mental load application) was “reduction of feeling of body heaviness”, the “VAS, Frustration (FIG. 5)” value ([2]; after mental load application) was “significant improvement” and the “VAS, Mood (FIG. 5)” value ([2]; after mental load application) was “improvement”. For the same molecule, the “VAS, Motivation (FIG. 5)” value ([2]; after mental load application) was “improvement”, the “VAS load-induced change, Clear-headedness” value [2, 10] was “marginally significant improvement and enhancement” and the “VAS load-induced change, Mood” value [2, 10] was “marginally significant improvement”. For the same molecule, the “VAS load-induced change, Clear-headedness” value [2, 11] was “marginally significant improvement and enhancement”, the “VAS load-induced change, Concentration” value [2, 11] was “marginally significant improvement and enhancement” and the “VAS load-induced change, Feeling of body heaviness” value [2, 11] was “marginally significant improvement”. The “VAS load-induced change, Frustration” value [2, 11] was “significant improvement”, the “VAS, Clear-headedness (FIG. 5)” value [2, 12] was “marginally significant improvement” and the “VAS, Concentration (FIG. 5)” value [2, 12] was “marginally significant improvement”. The “VAS, Feeling of body heaviness (FIG. 5)” value [2, 12] was “marginally significant improvement”, the “VAS, Frustration (FIG. 5)” value [2, 12] was “significant improvement” and the “VAS, Mood (FIG. 5)” value [2, 12] was “improvement”. The “VAS, Motivation (FIG. 5)” value [2, 12] was “improvement”, the “POMS ingestion-induced change, Friendliness (F)” value ([3]; after 8-week ingestion minus pre-ingestion, vs control group (FIG. 6)) was “significant high value” and the “POMS load-induced change, Vigor-activity (VA)” value ([3]; after the rest period, after 8-week ingestion, vs control group (FIG. 6)) was “marginally significant high value”. The “POMS improvement in Vigor-activity (VA) compared with quercetin/isoquercetin” value ([3]; vs literature: 250 mg quercetin and 100 mg isoquercetin for 42 to 54 days) was “larger”, the “POMS improvement in Vigor-activity (VA), AH, FI and CB compared with bonito stock” value ([3]; vs literature: bonito stock morning and evening over two weeks) was “larger” and the adverse event ([4]; this study) was “no adverse event was found”. For the same molecule, the adverse subjective symptoms [4, 13] was “none of the subjects complained”, the “medical examination by a physician” value [4, 13] was “no remarkable abnormalities” and the adverse event [5] was “No adverse event”.
